Assay results: patent US10981932B2, “Macrocyclic indole derivatives” (Bayer Aktiengesellschaft, priority 2016, dated 2021)
Where a name gives a salt, the structure may show the parent alone. Read-outs that look alike come from different tables or passages of the source.

Legend:
A2780 = test: Anti-proliferative effect (CellTiter-Glo, 72 h), A2780; assay type: cell-based; details: A2780 cells, median, read-out: IC50 antiproliferation assay A2780 [M] (median)
In short: (§1)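 CellTiter-Glo luminescence readout of viability, taken on a time-zero plate at day 0 and on treated plates after 72 h incubation at 37 °C in a humidified incubator. Reagent incubation 10 min before reading.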

SUDHL10 [1] = test: Anti-proliferative effect (CellTiter-Glo, 72 h), SUDHL10; assay type: cell-based; details: SUDHL10 cells, antiproliferation, median, read-out: Antiproli SUDHL10 [M] (median)
In short: as §1

MCL-1 = MCL-1 (Homo sapiens, UniProt Q07820); test: Protein-protein interaction assay MCL-1/Noxa BH3 peptide (MCL-1 assay), TR-FRET; assay type: binding; details: MBP-MCL-1 / Noxa BH3-derived peptide, median
In short: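 MBP-MCL-1 (1 nM final) was preincubated 10 min at 22 °C with compounds (11 concentrations, 0.1 nM–20 μM, duplicates) in Tris pH 7 buffer with NaCl, KF, Tween-20, DTT and BGG. After 1 h at 22 °C in the dark plus overnight at 4 °C, anti-MBP Eu-cryptate/streptavidin-XL665 TR-FRET was read; IC50 came from a 4-parameter fit.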

SUDHL5 [2] = test: Anti-proliferative effect (CellTiter-Glo, 72 h), SUDHL5; assay type: cell-based; details: SUDHL5 cells, antiproliferation, median, read-out: Antiproli SUDHL5 [M] (median)
In short: as §1

SUDHL10 [3] = test: Induction of caspase-3/7 activity (Caspase-Glo 3/7), SUDHL10; assay type: cell-based; details: caspase-3/7 induction, SUDHL10 cells, 3 h treatment, median
In short: (§2)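 Caspase-Glo 3/7 luminescence measured after 3 h compound exposure at 37 °C in SUDHL10 and SUDHL5 cells. EC50 values come from background-corrected signals, with curve bottom set to 1 and plateau set to maximal induction by the reference compound.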

SUDHL10 [4] = test: Induction of cytotoxicity (CellTiter-Glo, 5 h), SUDHL10
SUDHL5 [5] = test: Induction of cytotoxicity (CellTiter-Glo, 5 h), SUDHL5
SUDHL5 [6] = test: Induction of caspase-3/7 activity (Caspase-Glo 3/7), SUDHL5; assay type: cell-based; details: caspase-3/7 induction, SUDHL5 cells, 3 h treatment, median
In short: as §2

[7] = Homo sapiens, SU-DHL10, 72 h, 72 h
[8] = Homo sapiens, SU-DHL-5, 72 h, 72 h
[9] = Homo sapiens, SU-DHL10, 5 h, read-out: Cytotox SUDHL10 [M] (median), SUDHL10 cells, cytotoxicity induction, CellTiter-Glo, 5 h, median
[10] = Homo sapiens, SU-DHL-5, 5 h, read-out: Cytotox SUDHL5 [M] (median), SUDHL5 cells, cytotoxicity induction, CellTiter-Glo, 5 h, median
[11] = Homo sapiens, SU-DHL10, 72 h, 72 h incubation
[12] = Homo sapiens, SU-DHL-5, 72 h, 72 h incubation
[13] = Homo sapiens, SU-DHL10, 5 h, read-out: Cytotox SUDHL10 [M] (median), SUDHL10 cells, cytotoxicity induction, CellTiter-Glo, 5 h incubation, median
[14] = Homo sapiens, SU-DHL-5, 5 h, read-out: Cytotox SUDHL5 [M] (median), SUDHL5 cells, cytotoxicity induction, CellTiter-Glo, 5 h incubation, median
[15] = read-out: Cytotox SUDHL10 [M] (median), SUDHL10 cells, cytotoxicity induction, CellTiter-Glo, 5 h incubation, median
[16] = read-out: Cytotox SUDHL5 [M] (median), SUDHL5 cells, cytotoxicity induction, CellTiter-Glo, 5 h incubation, median

Sequence of MCL-1 (Q07820 whole entry): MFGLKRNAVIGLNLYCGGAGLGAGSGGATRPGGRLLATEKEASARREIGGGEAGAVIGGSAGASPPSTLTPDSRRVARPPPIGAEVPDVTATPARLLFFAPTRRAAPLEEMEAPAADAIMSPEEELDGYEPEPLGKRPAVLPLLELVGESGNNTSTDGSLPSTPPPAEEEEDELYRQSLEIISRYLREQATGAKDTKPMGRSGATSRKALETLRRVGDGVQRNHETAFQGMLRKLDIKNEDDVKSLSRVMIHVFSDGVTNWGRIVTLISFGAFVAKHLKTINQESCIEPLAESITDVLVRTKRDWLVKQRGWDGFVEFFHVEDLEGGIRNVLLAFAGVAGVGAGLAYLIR

SMILES | IC50 (A2780; Homo sapiens, A2780, 72 h) [M] | IC50 (SUDHL10 [1]; [7]) [M] | IC50 (MCL-1) [µM] | IC50 (SUDHL5 [2]; [8]) [M] | EC50 (SUDHL10 [3]; Homo sapiens, SU-DHL10, 3 h) [µM] | EC50 (SUDHL5 [6]; Homo sapiens, SU-DHL-5, 3 h) [µM] | IC50 (SUDHL10 [1]; [11]) [M] | IC50 (SUDHL5 [2]; [12]) [M] | IC50 (A2780) [M] | IC50 (SUDHL10 [1]; 72 h incubation) [M] | IC50 (SUDHL5 [2]; 72 h incubation) [M] | EC50 (SUDHL10 [3]) [µM] | EC50 (SUDHL5 [6]) [µM] | IC50 (SUDHL10 [4]; [9]) [M] | IC50 (SUDHL5 [5]; [10]) [M] | IC50 (SUDHL10 [4]; [13]) [M] | IC50 (SUDHL5 [5]; [14]) [M] | IC50 (SUDHL10 [4]; [15]) [M] | IC50 (SUDHL5 [5]; [16]) [M]
Cc1cc(OCCCc2c(C(=O)O)n3c4c(cccc24)-c2c(C)nn(C)c2COCCCC3)cc(C)c1Cl (single isomer, unassigned; enantiomer 2) [Example 011, 7-[3-(4-chloro-3,5-dimethylphenoxy)propyl]-1,3-dimethyl-1,10,11,12,13,15-hexahydropyrazolo[4′,3′:9,10][1,6]oxazacycloundecino[8,7,6-hi]indole-8-carboxylic Acid-N-ethylethanamine Salt (Enantiomer 2)] | – | – | 0.162 | – | – | – | – | – | 1.58e-05 | 1.18e-05 | 2.02e-05 | > 33 | > 33 | – | – | – | – | > 3.3e-05 | > 3.3e-05
CCc1nn(C)c2c1-c1c(C)ccc3c(CCCOc4cccc5cc(F)ccc45)c(C(=O)O)n(c13)CCCCOC2 (racemic) [Example 266, (rac)-3-ethyl-7-{3-[(6-fluoronaphthalen-1-yl)oxy]propyl}1,4-dimethyl-1,10,11,12,13,15-hexahydropyrazolo[4′3′:9,10][1,6]oxazacycloundecino[8,7,6-hi]indole-8-carboxylic Acid] | 2.83e-05 | – | 0.00259 | – | 4.47 | 1.79 | 2.83e-06 | 9.96e-07 | – | – | – | – | – | – | – | 4.99e-06 | 1.76e-06 | – | –
CCCc1nn(C)c2c1-c1c(C)ccc3c(CCCOc4cccc5ccccc45)c(C(=O)O)n(c13)CCCCOC2 (racemic) [Example 187, (rac)-1,4-dimethyl-7-[3-(naphthalen-1-yloxy)propyl]-3-propyl-1,10,11,12,13,15-hexahydropyrazolo[4′,3′:9,10][1,6]oxazacycloundecino[8,7,6-hi]indole-8-carboxylic Acid] | 2.17e-05 | – | 0.00261 | – | 13.3 | 3.71 | 1.41e-05 | 7.27e-06 | > 3.3e-05 | – | – | – | – | – | – | 1.07e-05 | 3.85e-06 | – | –
CN1CCCn2c(C(=O)O)c(CCCOc3cccc4ccccc34)c3cccc(c32)-c2c(CN3CCOCC3=O)nn(C)c2C1 (racemic) [Example 157, (rac)-7,9-dimethyl-1-[3-(naphthalen-1-yloxy)propyl]-11-[(3-oxomorpholin-4-yl)methyl]-4,5,6,7,8,9-hexahydropyrazolo[3′,4′:7,8][1,5]diazecino[9,10,1-hi]indole-2-carboxylic Acid] | > 3.3e-05 | – | 0.289 | – | > 33 | > 33 | > 3.3e-05 | > 3.3e-05 | – | – | – | – | – | – | – | > 3.3e-05 | > 3.3e-05 | – | –
Cc1ccc2c(C(C)CCOc3cccc4c3CCCC4)c(C(=O)O)n3c2c1-c1c(nn(C)c1C)COCCCC3 (racemic) [Example 363, 11,12,13-trimethyl-1-(4-((5,6,7,8-tetrahydronaphthalen-1-yl)oxy)butan-2-yl)-4,5,6,7,9,11-hexahydropyrazolo[4′,3′:9,10][1,6]oxaazacycloundecino[8,7,6-hi]indole-2-carboxylic Acid (Mixture of Stereoisomers)] | 1.54e-05 | 1.13e-05 | 0.042 | 1.14e-05 | 23.1 | 20.2 | – | – | – | – | – | – | – | 2.97e-05 | 1.68e-05 | – | – | – | –
Cc1c2c(nn1C1CC1)COCCCCn1c(C(=O)O)c(CCCOc3cccc4ccccc34)c3cccc-2c31 (racemic) [Example 092, (rac)-2-cyclopropyl-3-methy-7-[3-(naphthalen-1-yloxy)propyl]-2,10,11,12,13,15-hexahydropyrazolo[4′,3′:9,10][1,6]oxazacycloundecino[8,7,6-hi]indole-8-carboxylic Acid] | 2.48e-05 | – | 0.00708 | – | 20.2 | 6.16 | 2.06e-06 | 8.25e-06 | – | – | – | – | – | – | – | 2.23e-05 | 6.75e-06 | – | –

More lines, in order of falling IC50 (MCL-1), values ahead:

IC50 (A2780; Homo sapiens, A2780, 72 h) [M] | IC50 (SUDHL10 [1]; [7]) [M] | IC50 (MCL-1) [µM] | IC50 (SUDHL5 [2]; [8]) [M] | EC50 (SUDHL10 [3]; Homo sapiens, SU-DHL10, 3 h) [µM] | EC50 (SUDHL5 [6]; Homo sapiens, SU-DHL-5, 3 h) [µM] | IC50 (SUDHL10 [1]; [11]) [M] | IC50 (SUDHL5 [2]; [12]) [M] | IC50 (A2780) [M] | IC50 (SUDHL10 [1]; 72 h incubation) [M] | IC50 (SUDHL5 [2]; 72 h incubation) [M] | EC50 (SUDHL10 [3]) [µM] | EC50 (SUDHL5 [6]) [µM] | SMILES | IC50 (SUDHL10 [4]; [9]) [M] | IC50 (SUDHL5 [5]; [10]) [M] | IC50 (SUDHL10 [4]; [13]) [M] | IC50 (SUDHL5 [5]; [14]) [M] | IC50 (SUDHL10 [4]; [15]) [M] | IC50 (SUDHL5 [5]; [16]) [M]
1.67e-05 | 8.22e-06 | 1.04 | 8.44e-06 | > 33 | 17.3 | – | – | – | – | – | – | – | Cn1nc(CN2CCCCC2)c2c1COCCCCn1c(C(=O)O)c(CCCOc3cccc4ccccc34)c3cccc-2c31 (single isomer, unassigned; enantiomer 1) [Example 333, 1-methyl-7-[3-(naphthalen-1-yloxy)propyl]-3-(piperidin-1-ylmethyl)-1,10,11,12,13,15-hexahydropyrazolo[4′,3′:9,10][1,6]oxazacycloundecino[8,7,6-hi]indole-8-carboxylic Acid (Enantiomer 1)] | > 3.3e-05 | 2.89e-05 | – | – | – | –
> 3.3e-05 | > 3.3e-05 | 0.075 | > 3.3e-05 | > 33 | > 33 | – | – | – | – | – | – | – | CN1CCN(Cc2c3c(nn2C)COCCCCn2c(C(=O)O)c(CCCOc4cccc5ccccc45)c4cccc-3c42)CC1 (racemic) [Example 359, (rac)-2-methyl-3-[(4-methylpiperazin-1-yl)methyl]-7-[3-(naphthalen-1-yloxy)propyl]-2,10,11,12,13,15-hexahydropyrazolo[4′,3′:9,10][1,6]oxazacycloundecino[8,7,6-hi]indole-8-carboxylic Acid] | > 3.3e-05 | > 3.3e-05 | – | – | – | –
1.62e-05 | – | 0.0521 | – | > 33 | 15 | 1.26e-05 | 1.36e-05 | – | – | – | – | – | Cc1nn(CC(F)(F)F)c2c1-c1cccc3c(CCCOc4cccc5c4CCCC5)c(C(=O)O)n(c13)CCCCOC2 (racemic) [Example 161, (rac)-3-methyl-7-[3-(5,6,7,8-tetrahydronaphthalen-1-yloxy)propyl]1-(2,2,2-trifluoroethyl)-1,10,11,12,13,15-hexahydropyrazolo[4′,3′:9,10][1,6]oxazacycloundecino[8,7,6-hi]indole-8-carboxylic Acid] | – | – | > 3.3e-05 | 1.06e-05 | – | –
> 3.3e-05 | – | 0.00974 | – | – | – | 1.97e-05 | – | – | – | 2.94e-06 | 13.1 | 9.57 | Cn1ccnc1COCc1nn(C)c2c1-c1cccc3c(CCCOc4cccc5ccccc45)c(C(=O)O)n(c13)CCCCOC2 (single isomer, unassigned) [Example 232, (+)-1-methyl-3-{[(1-methyl-1H-imidazol-2-yl)methoxy]methyl}-7-[3-(naphthalen-1-yloxy)propyl]-1,10,11,12,13,15-hexahydropyrazolo[4′,3′:9,10][1,6]oxazacycloundecino[8,7,6-hi]indole-8-carboxylic Acid] | – | – | – | – | 1.32e-05 | 7.5e-06
2.25e-05 | – | 0.0028 | – | 6.94 | 1.72 | 7.48e-06 | 3.35e-06 | – | – | – | – | – | CCc1nn(CCN2CCOCC2)c2c1-c1cccc3c(CCCOc4cccc5ccccc45)c(C(=O)O)n(c13)CCCCOC2 (racemic) [Example 198, (rac)-3-ethyl-1-[2-(morpholin-4-yl)ethyl]-7-[3-(naphthalen-1-yloxy)propyl]-1,10,11,12,13,15-hexahydropyrazolo[4′,3′:9,10][1,6]oxazacycloundecino[8,7,6-hi]indole-8-carboxylic Acid] | – | – | 6.77e-06 | 2.05e-06 | – | –
